Test results from patent US5552155A, “Fusogenic lipsomes and methods for making and using same” (The Liposome Company, Inc., priority 1994, dated 1996).

Assays:
[1] = Lipid-mixing fusion assay by RET fluorescent probe dilution, EPC/DOPE/Chol liposomes; conditions: for order of fusion traces, uppermost-lowermost / fusion of liposomes / fusion rate (in words): 5 mole % aminolipid, FIG. 9; for order of fusion traces, uppermost-lowermost: EPC/Chol/DOPE (35:20:45); for fusion of liposomes / fusion rate (in words): EPC/DOPE/Chol (35:20:45)
Protocol: (§1) Fusion was monitored by the decrease in resonance energy transfer (RET) resulting from fluorescent probe dilution, as described by Struck et al. (1981). […] The external buffer was 20 mM HEPES (150 mM NaCl, pH 7.5). […] Labeled and unlabeled liposomes were mixed in a 1:3 ratio, and diluted to 0.2 mM total lipid. External buffer was exchanged for 300 mM sucrose, 1 mM citrate, pH 4.0, on Sephadex G-25 columns before diluting preparations to 10 mM lipid. For fusion assays, 20 μl of fluorescently labeled liposomes, and 60 μl unlabeled liposomes, were added to 3.92 ml of 20 mM HEPES, 150 mM NaCl, pH 7.5. After 5 min. of incubation at room temperature, a 3 ml aliquot was added to a cuvette, and the fluorescence was monitored over 5 minutes. Excitation and emission wavelengths were 465 and 535 nm, respectively, and an emission 530 nm cutoff filter was used. To dissipate the gradient and induce fusion, ammonium acetate was added to a final concentration of 100 mM at 30 seconds. The percent change in fluorescence (% F/Fmax) was determined by assigning zero fluorescence (F0) to a trace with no ammonium acetate added and Fmax to a trace measured after adding 100 μl of 25 mM Triton X-100, so that:
(§2) % (F/Fmax)=100×((F-F0)/(Fmax -F0))
To study the effect of aminolipid structure on the fusion of EPC/Chol/DOPE liposomes (35:20:45) liposomes were prepared with 5 mole % of the indicated aminolipid (AL-1-AL-6), an internal pH 4.0, 300 mM sodium citrate buffer, and an external 20 mM HEPES buffer (150 mM NaCl, pH 7.5). Fusion assays were carried out as described above.
(§3) Membrane fusion was monitored by a loss in RET between the fluorescently labeled lipids NBD-PE and Rh-PE. When liposomes containing both of these labels fuse with unlabeled liposomes, the resulting dilution of the fluorescent probes gives increased fluorescence for NBD-PE.

[2] = TNS fluorescence pH titration: apparent pKa and % charged of aminolipids in liposomal membranes; assay type: physicochemical; conditions: for pKa's and relative charges at pH 7.5 (in words): compared with AL-1; for Apparent pKa: in liposomes, from fit of TNS fluorescence titrations to Henderson-Hasselbach equation; for pKa in the lipid bilayer (text / figure legend): TNS fluorescence titration, 10 mole % AL-1 in EPC/Chol (55:45), no pH gradient (nigericin)
Protocol: Preparations were diluted to 0.25 mM total lipid in 5 mM HEPES, 5 mM ammonium, 2 μM TNS at pHs ranging from 3.0 to 10.0 The pH across the vesicle membranes was rendered equal by adding nigericin to a final concentration of 0.01 μM. The TNS fluorescence at each pH value was determined under the conditions given above.
*The data were derived from TNS fluorescence titrations. Curves for each
aminolipid were fitted to the HendersonHasselbach equation by iteratively
varying pKa and maximum and minimum fluorescence.

[3] = 2H-NMR phase behavior of AL-1-d4 in MLVs; assay type: physicochemical; conditions: for phase behavior by 2H-NMR (in words): 10 mole % AL-1-d4 in EPC/Chol (55:45)
Protocol: Freeze-thawed MLVs of 10 mole % AL-1-d4 in EPC/Chol (55:45) were prepared as described above in 100 mM ammonium acetate at pH 4.0 and pH 7.5 in deuterium-depleted water. Sample concentrations were approximately 150 mM total lipid. Broad line quadrupole spectra were recorded on a Bruker MSL200 spectrometer at 30.7 MHz, using a spin-echo sequence with a 5.3 μs 90° pulse and a 200 ms repeat delay. Temperature was maintained at 20° C. with a liquid nitrogen flow system. […] FIDs were transformed using 100 Hz line-broadening.
Freeze-thawed MLVs containing 5 mole percent AL-1-d4 in EPC/Chol (55:45) were prepared in 20 mM HEPES, 20 mM ammonium acetate, 150 mM NaCl, pH 4.0 and pH 7.5, using deuterium-depleted water. Sample concentrations were approximately 200 mM total lipid. ^2 H-NMR broadline spectra were recorded at 46.175 MHz, on a home-built 300 MHz spectrometer using a 5 μs 90° pulse, 50 μs interpulse spacing, 30.5 μs ring-down delay, and a 300 ms repetition time. A quadrupole echo sequence with eight-step phase cycling was used to accumulate 200,000 scans. The resulting free induction decay (FID) was transformed with 100 Hz line-broadening. High resolution ^31 P spectra were recorded at 81 MHz on a Bruker MSL200 spectrometer, using a 2.8 μs pulse and 30 s repeat. Temperature was maintained at 23 degrees Celsius with a liquid nitrogen flow system. The FID was accumulated over 1000 scans, and transformed with 50 Hz line broadening.
The use of MLVs in this experiment avoids the rapid tumbling of LUVs on the NMR time scale. […] At pH 7.5, the bilayer signal is no longer present, and a strong isotropic peak appears in the middle of the spectrum.

[4] = Aggregation / stability of aminolipid-containing liposomes; assay type: physicochemical
[5] = Lipid asymmetry (transport of aminolipid to the inner monolayer) by TNS fluorescence; assay type: physicochemical; conditions: internal pH 4, external pH 7.5
Protocol: Aliquots of 90 μl were added to 2.9 ml of 20 mM HEPES, 150 mM NaCl, 5 μM TNS, pH 7.5, and fluorescence was monitored over 5 minutes.
However, at higher concentrations, the fluorescence levels off and begins to decrease.
The slow decreases in fluorescence observed in these curves is a result of photobleaching of TNS during the course of the experiments. […] The rapid movement of the AL-1 across the bilayer is advantageous for its use in controlling fusion.

[6] = Lipid-mixing fusion assay by RET fluorescent probe dilution, EPC/DOPE/Chol liposomes
[7] = Lipid-mixing fusion assay by RET fluorescent probe dilution, EPC/Chol (55:45) liposomes; conditions: for ΔF/ΔFmax (fusion): pH gradient dissipated by ammonium acetate
Protocol: as §1, §2
The labeled and unlabeled liposomes were mixed in a 1:3 ratio and diluted to 0.20 mM total lipid. The pH gradient was dissipated by the addition of ammonium acetate to a final concentration of 100 mM at 30 seconds.
as §3

[8] = Table 1, from TNS fluorescence titrations
[9] = 10 mole % AL-1 in EPC/Chol (55:45)

## CCCCCCCC/C=C\CCCCCCCC(=O)OCC(CN(C)C)OC(=O)CCCCCCCCC (racemic) [AL-5]
[1]
  order of fusion traces, uppermost-lowermost: AL-1, AL-5, AL-4, AL-3, AL-6, AL-2 and blank
  fusion of liposomes / fusion rate (in words): further increases in the fusion rate, with rates approaching those achieved with AL-1--containing liposomes
[2]; [8]
  % Charged at pH 7.5: 14%
[2]
  pKa's and relative charges at pH 7.5 (in words): approach those for AL-1

## CCCCCCCC/C=C\CCCCCCCC(=O)OCC(CN(C)C)OC(=O)CCC (racemic) [AL-4]
[1]
  order of fusion traces, uppermost-lowermost: AL-1, AL-5, AL-4, AL-3, AL-6, AL-2 and blank
  fusion of liposomes / fusion rate (in words): further increases in the fusion rate, with rates approaching those achieved with AL-1--containing liposomes
[2]; Table 1
  Apparent pKa: 6.66
[2]; [8]
  % Charged at pH 7.5: 13%
[2]
  pKa's and relative charges at pH 7.5 (in words): approach those for AL-1

## CCCCCCCCCC(=O)OCC(CN(C)C)OC(=O)CCCCCCCCC (racemic) [AL-6, ±-1,2-didecanoyl-1-N,N,-dimethyl-aminopropane]
[1]
  order of fusion traces, uppermost-lowermost: AL-1, AL-5, AL-4, AL-3, AL-6, AL-2 and blank
  fusion of liposomes / fusion rate (in words): only limited mixing
[2]; [8]
  % Charged at pH 7.5: 17%
[2]
  pKa's and relative charges at pH 7.5 (in words): approach those for AL-1

## CCCCCCCC/C=C\CCCCCCCC(=O)OCC(O)CN(C)C (racemic) [AL-2, ±-oleoyl-2-hydroxy-3-N,N-dimethylaminopropane]
[1]
  order of fusion traces, uppermost-lowermost: AL-1, AL-5, AL-4, AL-3, AL-6, AL-2 and blank
  fusion of liposomes / fusion rate (in words): little increase in liposome fusion in comparison with liposomes not containing aminolipid
[2]
  pKa in the lipid bilayer (text / figure legend): about 7.57
[2]; Table 1
  Apparent pKa: 7.57
[2]; [8]
  % Charged at pH 7.5: 54%

## [2H]/C(CCCCCCCC)=C(\[2H])CCCCCCCC(=O)OCC(CN(C)C)OC(=O)CCCCCCC/C([2H])=C(/[2H])CCCCCCCC (racemic) [AL-1-d4, rac-1-N,N-dimethylamino-2,3-bis(9,10-dideuteriooleoyl)propane]
[3]; 5 mole % AL-1-d4, EPC/DOPE/Chol, pH 7.5, FIG. 8A
  2H-NMR quadrupolar splitting of signal believed to arise from aminolipid in HII phase: about 12 kHz
[3]; pH 4.0
  phase behavior by 2H-NMR (in words): quadrupolar splittings for the chain-labeled positions of AL-1-d4, with the expected magnitude for lipid in the bilayer

## CCCCCCCC/C=C\CCCCCCCC(=O)OCC(CN(C)C)OC(=O)CCCCCCC/C=C\CCCCCCCC (centres unmarked) [AL-1, 1-N,N-dimethylamino dioleoyl propane]
[4]; 5 mole % AL-1, EPC/DOPE/Chol (35:20:45), pH 4.0 and external pH 7.5
  liposome stability (in words): stable liposomes were prepared, and these remained stable when the external pH was increased to 7.5
[4]; 10 mole % AL-1, EPC/DOPE/Chol 35:20:45, low pH
  liposome aggregation (in words): some aggregation of liposomes was observed at low pH
[4]; 10 mole % AL-1, EPC/DOPE/Chol, DOPE above 35:20:45
  liposome aggregation (in words): rapid aggregation
[4]; [9]
  liposome aggregation (in words): aggregated
[4]; AL-1 greater than about 20 mole % in EPC/Chol, following extrusion
  liposome aggregation (in words): rapid and complete liposome aggregation
[5]; [9]
  time until TNS fluorescence equal to that of EPC/Chol liposomes (virtually all AL-1 moved to the inner monolayer): four
[5]; pH gradient
  transbilayer movement to the inner monolayer (in words): virtually all of the AL-1 had moved to the inner monolayer
[6]; 10 mole % AL-1, DOPE replacing EPC up to 35:20:45 EPC/DOPE/Chol, FIG. 6
  fusion rate with increasing DOPE (in words): Increasing fusion rates were evident with increasing DOPE concentrations
[6]; 10 mole % AL-1, EPC/DOPE/Chol 35:20:45, after 5 minutes
  ΔF/ΔFmax (fusion): over 5%
[6]; 10 mole % AL-1, EPC/DOPE/Chol (30:25:45), over 5 minutes after gradient dissipation
  ΔF/ΔFmax (fusion): ~10%
[1]; 5 mole % AL-1, EPC/DOPE/Chol (35:20:45), first 5 minutes
  ΔF/ΔFmax (fusion): greater than 10%
[1]
  order of fusion traces, uppermost-lowermost: AL-1, AL-5, AL-4, AL-3, AL-6, AL-2 and blank
[7]; 10 mole % AL-1, EPC/Chol (55:45)
  ΔF/ΔFmax (fusion): ~3%
[7]; 20 mole % AL-1, EPC/Chol (55:45)
  ΔF/ΔFmax (fusion): ~3%
[7]; AL-1 in EPC/Chol (55:45)
  degree of fusion (in words): limited degree of fusion
[3]; pH 7.5
  phase behavior by 2H-NMR (in words): exists in separate fluid domains at pH 7.5

## CCCCCCCC/C=C\CCCCCCCC(=O)OCC(CN(C)C)OC(C)=O (racemic) [AL-3]
[1]
  order of fusion traces, uppermost-lowermost: AL-1, AL-5, AL-4, AL-3, AL-6, AL-2 and blank
  fusion of liposomes / fusion rate (in words): substantially greater fusion rate
[2]
  pKa in the lipid bilayer (text / figure legend): 6.79
  % Charged at pH 7.5: 16%
[2]; [8]
  % Charged at pH 7.5: 16%
